The NIST ThermoML archive (doi:10.1016/j.fluid.2004.09.013)

Details: for mass density: Fluid (supercritical or subcritical phases), Vibrating tube method

C/C=C\C [(Z)-2-butene]
Details | Critical density [kg/m3] | mass density [kg/m3]
453.24 K, 29992 kPa | – | 504.64
453.24 K, 34997 kPa | – | 516.94
453.24 K, 39986 kPa | – | 527.56
458.24 K, 5019 kPa | – | 150.54
458.24 K, 9982 kPa | – | 395.53
458.24 K, 14988 kPa | – | 439.55
458.24 K, 20006 kPa | – | 465.63
458.24 K, 24985 kPa | – | 484.52
458.24 K, 30000 kPa | – | 499.71
458.24 K, 34991 kPa | – | 512.34
458.24 K, 39989 kPa | – | 523.28
463.23 K, 39987 kPa | – | 519.02
463.24 K, 5019 kPa | – | 137.08
463.24 K, 9986 kPa | – | 383.54
463.24 K, 14987 kPa | – | 431.68
463.24 K, 20001 kPa | – | 459.21
463.24 K, 24986 kPa | – | 479.01
463.24 K, 29986 kPa | – | 494.71
463.24 K, 34995 kPa | – | 507.77
468.24 K, 5018 kPa | – | 127.59
468.24 K, 10000 kPa | – | 371.16
468.24 K, 14996 kPa | – | 423.86
468.24 K, 20007 kPa | – | 452.9
468.24 K, 24993 kPa | – | 473.52
468.24 K, 29993 kPa | – | 489.76
468.24 K, 34996 kPa | – | 503.22
468.24 K, 40007 kPa | – | 514.77
473.23 K, 5018 kPa | – | 120.28
473.24 K, 9991 kPa | – | 357.88
473.24 K, 14997 kPa | – | 415.28
473.24 K, 20004 kPa | – | 446.42
473.24 K, 25004 kPa | – | 467.94
473.24 K, 30000 kPa | – | 484.78
473.24 K, 34996 kPa | – | 498.62
473.24 K, 39991 kPa | – | 510.47
478.23 K, 14995 kPa | – | 407.2
478.23 K, 19994 kPa | – | 439.87
478.23 K, 25001 kPa | – | 462.4
478.23 K, 35013 kPa | – | 494.09
478.23 K, 39992 kPa | – | 506.21
478.24 K, 5015 kPa | – | 114.19
478.24 K, 9987 kPa | – | 344.22
478.24 K, 29999 kPa | – | 479.77
483.23 K, 5018 kPa | – | 109.23
483.23 K, 19992 kPa | – | 433.21
483.24 K, 10014 kPa | – | 330.62
483.24 K, 14991 kPa | – | 398.7
483.24 K, 25005 kPa | – | 456.72
483.24 K, 29995 kPa | – | 474.68
483.24 K, 34999 kPa | – | 489.39
483.24 K, 39992 kPa | – | 501.87
488.23 K, 5019 kPa | – | 104.99
488.23 K, 19987 kPa | – | 426.61
488.23 K, 25005 kPa | – | 451.11
488.23 K, 29989 kPa | – | 469.66
488.23 K, 34990 kPa | – | 484.81
488.23 K, 39992 kPa | – | 497.63
488.24 K, 10014 kPa | – | 316.46
488.24 K, 15002 kPa | – | 390.34
493.23 K, 5016 kPa | – | 101.23
493.23 K, 9986 kPa | – | 301.65
493.23 K, 14996 kPa | – | 381.74
493.23 K, 19990 kPa | – | 420.02
493.23 K, 24987 kPa | – | 445.42
493.23 K, 29998 kPa | – | 464.71
493.23 K, 35003 kPa | – | 480.29
493.23 K, 40013 kPa | – | 493.44
498.23 K, 5018 kPa | – | 97.97
498.23 K, 9985 kPa | – | 287.72
498.23 K, 14994 kPa | – | 373.12
498.23 K, 19993 kPa | – | 413.38
498.23 K, 24997 kPa | – | 439.84
498.23 K, 29994 kPa | – | 459.71
498.23 K, 35006 kPa | – | 475.76
498.23 K, 40006 kPa | – | 489.2
503.23 K, 5019 kPa | – | 95.03
503.23 K, 10004 kPa | – | 274.87
503.23 K, 14996 kPa | – | 364.53
503.23 K, 20003 kPa | – | 406.9
503.23 K, 24990 kPa | – | 434.25
503.23 K, 29984 kPa | – | 454.72
503.23 K, 34985 kPa | – | 471.2
503.23 K, 39993 kPa | – | 485.02
508.23 K, 5019 kPa | – | 92.41
508.23 K, 9990 kPa | – | 262
508.23 K, 15002 kPa | – | 356.04
508.23 K, 19984 kPa | – | 400.28
508.23 K, 25008 kPa | – | 428.76
508.23 K, 29983 kPa | – | 449.83
508.23 K, 35004 kPa | – | 466.79
508.23 K, 40004 kPa | – | 480.91
513.23 K, 5014 kPa | – | 89.94
513.23 K, 9984 kPa | – | 250.08
513.23 K, 14990 kPa | – | 347.39
513.23 K, 19997 kPa | – | 393.83
513.23 K, 25007 kPa | – | 423.21
513.23 K, 29985 kPa | – | 444.89
513.23 K, 35002 kPa | – | 462.3
513.23 K, 40010 kPa | – | 476.76
518.22 K, 5019 kPa | – | 87.78
518.22 K, 14988 kPa | – | 338.79
518.22 K, 25002 kPa | – | 417.6
518.22 K, 30005 kPa | – | 440.02
518.22 K, 39988 kPa | – | 472.55
518.23 K, 9996 kPa | – | 239.51
518.23 K, 20004 kPa | – | 386.86
518.23 K, 34991 kPa | – | 457.76
523.22 K, 5019 kPa | – | 85.68
523.22 K, 9990 kPa | – | 229.24
523.22 K, 14985 kPa | – | 330.32
523.22 K, 25011 kPa | – | 412.04
523.22 K, 29990 kPa | – | 435.04
523.22 K, 34984 kPa | – | 453.26
523.22 K, 40013 kPa | – | 468.46
523.23 K, 20001 kPa | – | 380.33
Liquid, visual observation in a variable volume cell:FP | 238.12 | –

Liquid
Details | Critical pressure [kPa] | Critical temperature [K]
– | 4225.5 | 435.75
